Our source for the cytotoxicity values is ChEMBL document CHEMBL3507680, “University of Dundee, Gates Library screen for HepG2 cell viability”.

The structures appear in SMILES notation.

A short description of the data set: Human HepG2 cell viability assay in 384 well format. The data set is classed as toxicity, cell-based. Also on record: dose 125 nL, time 70.5 hour; cytotoxicity at 70.5 h: concentration not given beside the values. The settings on record: HepG2 cells, read-out: Inhibition.
With `CCNC(=O)N1CC(c2nc(Cc3ccccc3)no2)C1`, the cytotoxicity at 70.5 h is -5.59%.

Turning to `Cc1nnsc1C(=O)N1CC(c2nc3ccccc3[nH]2)C1`, the cytotoxicity at 70.5 h was -14.1%.

In the case of `Cc1cc(C)n(CCN2CCN(C(=O)c3ccc(Br)o3)CC2)n1`, the cytotoxicity at 70.5 h is -4.56%.

As to `O=C(Nc1ccc2c(c1)OCO2)N1CCN(CCn2cccn2)CC1`, the cytotoxicity at 70.5 h was -11.3%.

Take `N#Cc1ccc(C(=O)N2CC(c3nc(-c4ncccn4)no3)C2)cc1`: the cytotoxicity at 70.5 h was -13.2%.

As to `CCS(=O)(=O)N1CC(c2nc(-c3ccsc3)no2)C1`, the cytotoxicity at 70.5 h is -3.37%.

Regarding `COc1ccc(C(=O)NCc2ccco2)nn1`, the cytotoxicity at 70.5 h is -6.23%.

In the case of `O=C(NCC(Cc1cccc(F)c1)N1CCCC1=O)c1ccc[nH]c1=O` (stereo unspecified), the cytotoxicity at 70.5 h is -16.4%.

With `O=C(NCC(Cc1cccc(F)c1)N1CCCC1=O)C1CCCC1` (stereo unspecified), the cytotoxicity at 70.5 h is -13.2%.

With `CCS(=O)(=O)NCC(Cc1cccc(F)c1)N1CCNC1=O` (stereo unspecified), the cytotoxicity at 70.5 h came to 6.34%.

With `COc1cc(CN2CCC(COCc3ccccc3)CC2)cc(OC)c1`, the cytotoxicity at 70.5 h stood at 19.3%.

Regarding `O=S(=O)(c1ccccc1Cl)N1CCC2(CC1)OCCS2`, the cytotoxicity at 70.5 h is -9.74%.

Take `Cc1c(Cl)cccc1S(=O)(=O)N1CCC2(CC1)OCCS2`: the cytotoxicity at 70.5 h is -1.11%.

With `O=C(NC1CC1)C1CN(C(=O)c2cnccn2)C1`, the cytotoxicity at 70.5 h was -3.98%.

For the compound `O=C(NCC(F)(F)F)C1CN(C(=O)c2cnccn2)C1`, the cytotoxicity at 70.5 h is -9.42%.

Take `CC(=O)c1cccc(NC(=O)C2CN(S(=O)(=O)C3CC3)C2)c1`: the cytotoxicity at 70.5 h was -2.67%.

Consider `O=C(N1CCOCC1CO)C1(c2cccs2)CCCC1` (stereo unspecified), for which the cytotoxicity at 70.5 h is -4.96%.

`c1ccc2c(c1)CCN(c1nc(N3CCOCC3)c3nn[nH]c3n1)C2`: the cytotoxicity at 70.5 h was -0.0594%.

In the case of `O=C(NCc1cccs1)C1CCN(c2cc(-n3ccnc3)ncn2)CC1`, the cytotoxicity at 70.5 h was -0.911%.

Consider `O=S(=O)(NCC1CCN(c2cnccn2)CC1)c1cccs1`, for which the cytotoxicity at 70.5 h is 5.13%.

In the case of `COc1ccc(C(=O)NCCN2CCC(c3cccs3)CC2)cc1OC`, the cytotoxicity at 70.5 h came out at 0.337%.

As to `CCSc1ccccc1C(=O)NCCN1CCC(c2cccs2)CC1`, the cytotoxicity at 70.5 h worked out at 4.38%.

`CSCC(C)(O)CNS(=O)(=O)c1cccc(C)c1` (stereo unspecified): the cytotoxicity at 70.5 h was 6.12%.

As for `CSCCC(C)(O)CNC(=O)c1ccsc1` (stereo unspecified), the cytotoxicity at 70.5 h was 0.568%.

Consider `CSCCC(C)(O)CNS(=O)(=O)Cc1cccc(C)c1` (stereo unspecified), for which the cytotoxicity at 70.5 h is -16.9%.

As for `O=C(COc1ccccc1F)NCCC(O)c1ccco1` (stereo unspecified), the cytotoxicity at 70.5 h is -3.87%.

As to `O=C(NCCC(O)c1ccco1)c1ccccc1Br` (stereo unspecified), the cytotoxicity at 70.5 h was -2.47%.

Regarding `COC(=O)c1sccc1S(=O)(=O)NCCC(O)c1ccco1` (stereo unspecified), the cytotoxicity at 70.5 h is -8.35%.

Take `O=C(NCCC(O)c1cccs1)c1ccco1` (stereo unspecified): the cytotoxicity at 70.5 h was -9.55%.

Take `O=S(=O)(NCCC(O)c1cccs1)c1ccccc1` (stereo unspecified): the cytotoxicity at 70.5 h was -5.21%.

On to `COc1ccc(S(=O)(=O)NCCC(O)c2cccs2)c(C)c1` (stereo unspecified), for which the cytotoxicity at 70.5 h is -8.98%.

As to `CC(=O)Nc1nc2c(s1)CN(CC(=O)Nc1ccc(C)c(Cl)c1)CC2`, the cytotoxicity at 70.5 h is -14.4%.

For `O=C(Nc1nc2c(s1)CN(S(=O)(=O)C1CC1)CC2)c1cccc(Cl)c1`, the cytotoxicity at 70.5 h is 8.23%.

Regarding `O=C(Nc1ccc2c(c1)OCO2)N1CCN(CCn2ccnc2)CC1`, the cytotoxicity at 70.5 h is -6.54%.

Regarding `CCc1ccc(S(=O)(=O)N2CCN(CCn3ccnc3)CC2)cc1`, the cytotoxicity at 70.5 h was -0.658%.

For `COC(=O)c1ccc(C(=O)NCC2(O)CCOCC2)cc1`, the cytotoxicity at 70.5 h is 33.7%.

As to `O=C(COc1ccccc1F)NCC(O)(c1ccccc1)C1CC1` (stereo unspecified), the cytotoxicity at 70.5 h is -13.8%.

Take `O=C(NCC1(O)CCOc2ccccc21)Nc1ccccc1` (stereo unspecified): the cytotoxicity at 70.5 h turned out to be 1.09%.

In the case of `O=C(NCC1(O)CCOc2ccccc21)Nc1ccc2c(c1)OCO2` (stereo unspecified), the cytotoxicity at 70.5 h amounted to 0.267%.

`COc1ccc(CNC(=O)NCc2cc(C)oc2C)cc1`: the cytotoxicity at 70.5 h is -10.8%.

With `O=C1CC(NS(=O)(=O)c2ccc3ccccc3c2)CN1` (stereo unspecified), the cytotoxicity at 70.5 h is -5.96%.

Turning to `CCNC(=O)c1cc2n(n1)CCCO2`, the cytotoxicity at 70.5 h is -12.7%.

As to `CCOC(=O)CNC(=O)c1cc2n(n1)CCCO2`, the cytotoxicity at 70.5 h was -11.8%.

In the case of `Cc1cc2cc(CNC(=O)c3cnn4c3OCCC4)ccc2[nH]1`, the cytotoxicity at 70.5 h is -1.4%.

`CC1(C)OCC2(CO1)CN(C(=O)c1cccc3ccccc13)C2`: the cytotoxicity at 70.5 h was -8.48%.

Consider `CCSc1ccccc1C(=O)N1CC2(COC(C)(C)OC2)C1`, for which the cytotoxicity at 70.5 h was -4.65%.

On to `CC1(C)OCC2(CO1)CN(S(=O)(=O)c1ccc(Br)s1)C2`, for which the cytotoxicity at 70.5 h was 4.85%.

For `CN(C)c1ncc(NC(=O)c2ccccc2C(F)(F)F)cn1`, the cytotoxicity at 70.5 h was -4.64%.

`COCC(=O)Nc1cnc(N2CCN(c3ccccc3)CC2)nc1`: the cytotoxicity at 70.5 h was 2.64%.

With `COc1ccc(C)cc1NC(=O)Nc1cnc(N2CCCC2)nc1`, the cytotoxicity at 70.5 h was 1.09%.

In the case of `COc1ccc(S(=O)(=O)Nc2cnc(N(C)C)nc2)cc1`, the cytotoxicity at 70.5 h was 29.6%.

For the compound `CCc1ccc(S(=O)(=O)Nc2cnc(N3CCOCC3)nc2)cc1`, the cytotoxicity at 70.5 h was -2.95%.

As for `O=S(=O)(Nc1cnc(N2CCOCC2)nc1)c1cccc(F)c1`, the cytotoxicity at 70.5 h turned out to be 1.23%.

For `O=S(=O)(Nc1cnc(N2CCOCC2)nc1)c1ccc(C(F)(F)F)cc1`, the cytotoxicity at 70.5 h is 2.45%.

As for `Cc1noc(CNC(=O)CN(C)c2nc3ccccc3s2)n1`, the cytotoxicity at 70.5 h is -5.76%.

Consider `Cc1ccc(N2CCO[C@@H]3CN(Cc4cccc(C)n4)CC[C@@H]3C2)nn1`, for which the cytotoxicity at 70.5 h was -3.06%.

Turning to `Fc1cccnc1N1CCOCC2(CCCNC2)C1` (stereo unspecified), the cytotoxicity at 70.5 h amounted to 0.635%.

As to `COCCC1COC2(CCN(C(=O)CC3CCCC3)CC2)C1` (stereo unspecified), the cytotoxicity at 70.5 h is -3.15%.

Consider `O=S(=O)(C1CC1)N1CC[C@H](OCC2CC2)[C@@H]1Cc1ccncc1`, for which the cytotoxicity at 70.5 h is -4.87%.

Consider `COCCC1COC2(CCN(C(=O)C3CCCC3)CC2)C1` (stereo unspecified), for which the cytotoxicity at 70.5 h is -6.45%.

With `COCCC1COC2(CCN(C(=O)C3CCCCC3)CC2)C1` (stereo unspecified), the cytotoxicity at 70.5 h is -5.85%.

With `Cc1cnc(N2CCC3(CC2)CC(NC(=O)N(C)C)CO3)nc1` (stereo unspecified), the cytotoxicity at 70.5 h is -0.406%.

Take `CN1CCCN(C(=O)c2cc3c(s2)CCN3C(=O)C2CC2)CC1`: the cytotoxicity at 70.5 h is -3.39%.

For `CN1CCCN(C(=O)c2cc3c(s2)CCN3C(=O)c2ccccc2)CC1`, the cytotoxicity at 70.5 h is -1.37%.

Regarding `O=C(Nc1cccc(C2SCCS2)c1)C1CCCN1c1nccs1` (stereo unspecified), the cytotoxicity at 70.5 h was found to be 0.117%.

In the case of `COc1ccc(C2CCCN2C(=O)NCCn2ccnc2)cc1` (stereo unspecified), the cytotoxicity at 70.5 h was found to be 1.98%.

For `COc1ccc(C2CCCN2C(=O)NCCCn2ccnc2)cc1` (stereo unspecified), the cytotoxicity at 70.5 h stood at 16.1%.

Turning to `Cc1noc(C)c1C(=O)N1CCCN(Cc2nccn2C(C)C)CC1`, the cytotoxicity at 70.5 h was 0.0993%.

Consider `CC(=O)N(C)CC(=O)NCC1CCN(c2cc(Cl)ccc2C)C1` (stereo unspecified), for which the cytotoxicity at 70.5 h came to 2.11%.

As to `CCc1nc(C2CCCN2CCS(=O)(=O)c2ccccc2)no1` (stereo unspecified), the cytotoxicity at 70.5 h is -1.81%.

Regarding `Cc1cc(C(=O)N2CCCN(Cc3cnn(C)c3)CC2)no1`, the cytotoxicity at 70.5 h is -3.47%.

With `O=C(Cc1cn2ccsc2n1)N1CCCC(n2ccnc2)C1` (stereo unspecified), the cytotoxicity at 70.5 h is -2.03%.

Take `CN(C)c1cc(C(=O)N2CCCCCC2)ccn1`: the cytotoxicity at 70.5 h was -8.97%.

With `CN(C)c1ccc(NC(=O)NCC2CCOC2)cn1` (stereo unspecified), the cytotoxicity at 70.5 h is -9.11%.

`O=C(c1ccc(OCC2CC2)nc1)N1CCCC(n2cccn2)C1` (stereo unspecified): the cytotoxicity at 70.5 h was -7.07%.

As to `Cn1ccc(CN2CCC(NC(=O)C3CCCCC3)CC2)cc1=O`, the cytotoxicity at 70.5 h is -3.14%.

As to `c1ccc(COc2cccc(CNC3CCc4ncnn4C3)c2)cc1` (stereo unspecified), the cytotoxicity at 70.5 h came to 19.6%.

In the case of `Cc1cnn(C2CCCN(C(=O)c3ccc(OCC4CC4)nc3)C2)c1` (stereo unspecified), the cytotoxicity at 70.5 h was -3.84%.

As to `O=C(c1ccc(N2CCCC2)nc1)N1CCCC(n2cncn2)C1` (stereo unspecified), the cytotoxicity at 70.5 h is -9%.

For `O=C(Nc1nccs1)NC1CCN(CC2CCCC2)CC1`, the cytotoxicity at 70.5 h is -13.1%.

As to `c1cnnc(N2CCCC2CNCc2nc(-c3cccs3)no2)c1` (stereo unspecified), the cytotoxicity at 70.5 h is -15.1%.

Take `c1ccc(OCc2cscn2)c(CNC2CCc3ncnn3C2)c1` (stereo unspecified): the cytotoxicity at 70.5 h is -4.78%.

As to `Cc1cnn(CC2CCCN2Cc2cn3ccsc3n2)c1` (stereo unspecified), the cytotoxicity at 70.5 h was -9.34%.

In the case of `c1cnn(CC2CCCN2Cc2cn3ccsc3n2)c1` (stereo unspecified), the cytotoxicity at 70.5 h worked out at 6.04%.

On to `CC(C)CNC(=O)NC(=O)C(C)Nc1cccc(CN2CCOC2=O)c1` (stereo unspecified), for which the cytotoxicity at 70.5 h was -10.8%.

Take `CC1CCN(C(=O)CN2CC(c3nc(C4CC4)no3)C2)CC1`: the cytotoxicity at 70.5 h was 23.6%.

On to `Cc1noc(C2CN(Cc3ccc4c(c3)CCO4)C2)n1`, for which the cytotoxicity at 70.5 h was -11.7%.

In the case of `c1cnc(-c2noc(C3CN(Cc4ccc5c(c4)CCO5)C3)n2)nc1`, the cytotoxicity at 70.5 h is -2.95%.

As to `c1csc(-c2noc(C3CN(Cc4ccc5c(c4)CCO5)C3)n2)c1`, the cytotoxicity at 70.5 h is -9.73%.

As for `O=C(CN1CC(c2nc(-c3cccs3)no2)C1)NCC1CCCO1` (stereo unspecified), the cytotoxicity at 70.5 h was -2.94%.

For `COc1cc(COCC2CCN(Cc3cccnc3)CC2)cc(OC)c1`, the cytotoxicity at 70.5 h is -1.2%.

As for `Cc1ccc(N2CC[C@@H]3CN(Cc4cccc(C)n4)C[C@@H]3C2)nn1`, the cytotoxicity at 70.5 h is -4.34%.

For `Cn1nc(Cn2cccn2)c2c1CN(C1CCOCC1)C2`, the cytotoxicity at 70.5 h is -0.608%.

For the compound `O=C(C1CCC2(CCN(c3nncs3)CC2)CO1)N1CCCC1` (stereo unspecified), the cytotoxicity at 70.5 h was -1.78%.

On to `CCN1CC[C@]2(CN(Cc3nccs3)C[C@H]2c2ccccc2)C1=O`, for which the cytotoxicity at 70.5 h is -0.124%.

Regarding `O=C1NCC[C@]12CN(Cc1nccs1)C[C@H]2c1ccccc1`, the cytotoxicity at 70.5 h was -0.358%.

As to `Fc1cnc(N2CC[C@@H]3O[C@@H](COCc4cccnc4)CC[C@@H]32)nc1`, the cytotoxicity at 70.5 h was -6.15%.

Turning to `O=S(=O)(NCC1OCCc2cn(CC3CCOCC3)nc21)C1CC1` (stereo unspecified), the cytotoxicity at 70.5 h is -3.73%.

In the case of `Fc1cnc(N2CC[C@@H]3O[C@@H](COCc4ccccn4)CC[C@@H]32)nc1`, the cytotoxicity at 70.5 h came to 7.99%.

As to `CN(CCO)CC1COCCN1C(=O)C1CCCCC1` (stereo unspecified), the cytotoxicity at 70.5 h is -14.2%.

As to `CN(CCO)CC1COCCN1C(=O)CCC1CCCC1` (stereo unspecified), the cytotoxicity at 70.5 h was found to be 47.6%.
